Results from US8163803B2 (Fundação Oswaldo Cruz—FIOCRUZ, priority 2004, dated 2012).

Assays:
[1] = tested on: Na^+ currents in GH3 cells; assay: Tonic block of Na+ currents in GH3 cells, whole cell patch clamp; assay type: cell-based, Rat; details: for IC50: GH3 cells, holding potential −80 mV to +60 mV step pulse, read-out: IC50, blockade of Na+ currents
Method: Ion channel currents were recorded by means of a patch clamp technique. The cells cultured on the cover glass were placed in a chamber fixed to a microscope stage and continuously perfused with extracellular Saline (A) solution (in mM); 150 NaCl, 5 KCl, 1 MgCl2, 0.01 CaCl2, 1 EGTA, 10 HEPES, 2 BaCl2, 0.1 CdCl2, pH 7.4 at room temperature (22-25° C.) adjusted with NaOH. The cells were observed using phase contrast mode under an inverted microscope (Axiovert 100, Carl Zeiss, Oberkochem, D Germany). Tight-seal (>10 GΩ) whole cell voltage-clamp recordings were performed with an Axopatch-1D amplifier (Axon Instruments, San Mateo, Calif.). […] Fifteen minutes after rupture of the patch membrane, we started to record ion channel currents. Pulse protocols and data acquisition were controlled by Digidata 1320 interface (Axon Instruments, Palo Alto, Calif.), and acquired on a personal computer using Clampex 9 software. The Na^+ current recordings were filtered at 1 kHz and sampled at 8 kHz. About 26% of series resistance was electronically compensated. Drugs were applied to the recording chamber by gravity. Perfusion rate was maintained at 0.8-1.1 ml/min and bath volume was of 50 μl. […] Voltage-gated Na^+ currents were recorded from these cells in the presence or absence of treatment.

[2] = tested on: sensitized experimental animals; assay: Pulmonary eosinophil infiltrate after ovoalbumin aerosol challenge, bronchoalveolar lavage count; assay type: in vivo; details: 5% aerosol, 30 min, with ovoalbumin 1% plus 3 aerosolizations every 3 h; lavage 24 h after challenge
Method: The animals were sensitized through a cutaneous injection of a mixture with 50 μg ovoalbumin and 5 mg Al(OH)3, and challenged with ovoalbumin (1%) aerosol for 30 min 14 days afterwards, according to what was previously described. In order to avoid death of animals by anaphylatic asphyxia, all of them were treated intraperitonially with the anti-histaminic difenidramine (30 mg/kg) 30 minutes before being challenged.
Bronchoalveolar Lavage and Eosinophils Counting
All the animals were anesthesized terminally through an intraperitonial injection of pentobarbital (200 mg/kg) 24 h after the antigenic challenge, to wash the bronchoalveolar space according to the techniques previously described. Total leukocyte count were done after dilution of bronchoalveolar lavage samples in Turk liquid and counting in the Neubauer chamber with the assistance of direct-light microscopy. The differential eosinophil count was done also under direct-light microscopy, after centrifugation of samples of the lavage as well as its exposure to specific dyestuff (May-Grunwald-Giemsa dye).
The averages± standard error of the mean of the groups investigated were analyzed based on statistics through the test of variance analysis (ANOVA), followed by the Newman-Keuls-Student test.
Values, expressed in terms of “number of eosinophils×10^6/lavage” are presented as average±SEM in at least 7 animals. In the negative control group, animals previously sensitized were artificially-challenged through exposure to sterile saline (NaCl, 0.9%) aerosol. […] “*” represents the difference statistically significant (P<0.05), when the group treated and the positive control group were compared.

[3] = tested on: dorsal subcutaneous tissue of rats; assay: Anaphylactic release of histamine by fragments of dorsal subcutaneous tissue; parameters: species or system Wistar rats; details: ovoalbumin (300 μg/ml); for IC50: 60 min pre-treatment, read-out: IC50, inhibition of histamine release caused by anaphylatic stimulus
Method: Female and male Wistar rats were used, weighing between 180 and 200 g, they came from Oswaldo Cruz Foundation's Center of Laboratory Animal Raising. The procedures involving the animals were examined and approved by Oswaldo Cruz Foundation's Committee of Animal Ethics (CEUA-FIOCRUZ, Port. 00085-02). The rats were sensitized with a subcutaneous injection containing a mixture of 50 μg ovalbumina plus 5 mg Al(OH)3. Fourteen days after the sensitization the animals were sacrificed in a chamber of CO2, to have their dorsal hypodermis removed which was fragmented into smaller segments of about 3 mm in a Petri dish containing PBS. The fragments were individually transferred to a dish with 48 pools containing 500 μl of Hanks with Ca^++ and Mg^++.
Five experimental groups were studied in quadruplicates:
I. Saline group, negative control, pools where the tissue was neither treated nor stimulated;
II. Ovoalbumin group, positive control, pools where the tissue was not treated but it was stimulated by ovoalbumin (300 μg/ml);
III. JM24-1 group, pools where the tissue was previously treated with JM24-1 before the stimulation with ovoalbumin (300 μg/ml);
IV. JM25-1 group, pools where the tissue was previously treated with JM25-1 before the stimulation with ovoalbumin (300 μg/ml);
V. JMF2-1 group, pools where the tissue was previously treated with JMF2-1 before the stimulation with ovoalbumin (300 μg/ml).
Treated and non-treated pools were kept at 37° C. in a metabolic incubator (atmosphere containing 95% O2 and 5% CO2) for 60 minutes before the antigenic challenge. After the addition of ovoalbumin (300 μg/ml) all the pools were incubated again in a metabolic oven for more than 60 minutes. After removal of tissue for drying and weighing, the culture medium was collected and acidified with perchloric acid 0.4 N being, after centrifugation 150×g for 10 min. stocked at −20° C. until the moment of fluorimetric quantifying of histamine, according to the previous work. The values were shown like nanograms of released histamine by mg of tissue (dry weight).

eosinophils of rats = assay: Cytosolic calcium increase in eosinophils stimulated with PAF (Fura 2-AM); assay type: cell-based, Wistar rats; details: PAF (1 μM); for inhibition of citosolic calcium increase compared with lidocaine: 5 min pre-incubation
Method: Female and male Wistar rats were used, weighing between 200 and 250 g, they came from Oswaldo Cruz Foundation's Center of Laboratory Animal Raising. The procedures involving the animals were examined and approved by Oswaldo Cruz Foundation's Committee of Animal Ethics (CEUA-FIOCRUZ, Licenca no. 00085-02).
The animals were sacrificed in a chamber of CO2 and a population of cells containing 10-15% eosinophils were recovered from the peritoneal cavity after washing the same with 20 ml Hanks, as previously described. After centrifugation, the cellular sediment was resuspended and the leukocytes subtypes (mononuclear cells, eosinophils and mast cells) separated in a discontinuous gradient of Percoll (double layer) centrifugated at 400×g for 25 minutes. The eosinophils (85-95% purity) were recovered in the interface 56%-72%, washed in RPMi medium to eliminate residue of Percoll and related. The total cells isolated was obtained after the dilution of a sample in Türk liquid and couting in Neubauer chamber with the assistance of direct-light microscopy. The populational purity analysis was done by direct-light microscopy in cytocentrifugates dyed with May-Grunwald-Giemsa.
The eosinophils (1×10^7/ml) were loaded with 3 μM Fura 2-AM as described, washed in PBS enriched with 0.1% BSA, and resuspended in a final concentration of 0.5×10^6/ml PBS containing 0.25% BSA, HEPES and glucose ([…]). Alíquotas de células (1.5 ml) were dispensed in quartz cuvettes and balanced with 1 mM calcium at 37° C. for 10 minutes before being used. Fluorescence changes were measured by fluorometer Shimatzu (model RF 1501) as previously described. The calculus of free calcium was derived from the fluorescence spectrum (wave length of excitation, 340 and 380 nm; emission 510 nm) according to the method established. The values were represented as percentage of inhibition in relation to group control. […]
The values were expressed as an average± standard error of the mean and statistically analyzed through the test of variance analysis (ANOVA), followed by the Newman-Keuls-Student test.

patients = details: long-term treatment, nebulized; cited from earlier work

| SMILES | IC50 [1] [µM] | 50% inhibitory concentration, times higher than lidocaine ([1]; ratio to lidocaine IC50) [times] | blocking the accumulation of eosinophils in the bronchoalveolar area [2] | inhibition of anaphylactic histamine release, result in words [3] | IC50 [3] [µM] | inhibition of citosolic calcium increase compared with lidocaine (eosinophils of rats) | blocking of the increase of citosolic calcium (eosinophils of rats; highest concentration (1 mM), Average±SEM, n=8) [%] | patients with relief of asthma symptoms and diminished dependency on steroidal anti-inflammatory treatment (patients) |
| --- | --- | --- | --- | --- | --- | --- | --- | --- |
| CCN(CC)CC(=O)Nc1ccc(C)cc1C [JM24-1, 2-dyethylamine-2′,4′-acetoxylidide] | 5200 | 29 | equipotent to lidocaine | concentrations comparable to that of lidocaine | 6.46 | so effective as lidocaine and JM23-1 in higher concentrations |  |  |
| CCN(CC)CC(=O)Nc1c(C)cccc1C [Lidocaine, 1-(2-(dyethylamine)N-dymethylfenyl)-acetamide, reference compound] | 180 |  | clearly sensitive to lidocaine treatment |  | 4.5 |  | 47±2 | 20 out of 24 |
| CCN(CC)CC(=O)Nc1cccc(C)c1C [JM23-1, 2-dyethylamine-2′,3′-acetoxylidide] |  |  |  | inactive |  | equipotent to lidocaine |  |  |
